Where two headings read alike, the source gives them in different places.
Experiments:
cyp2e1 = biological target: T1, cyp2e1 (Rattus norvegicus, UniProt P05182); test: Cocktail method IC50 in rat liver microsomes, chlorzoxazone probe; type: in vitro ADME
T1 construct: To this cocktail, 1 mg/ml of RLMs; from tissue; host or cells: rat liver microsomes, prepared in-house
Method: (§1) The cocktail method was employed to analyze the effects of poziotinib on cyp1a2, cyp2b1, cyp2c11, cyp2d1, cyp2e1, and cyp3a1/2. […] Then half-maximal inhibitory concentration (IC50) of poziotinib was determined with all of the CYPs. […]. To this cocktail, 1 mg/ml of RLMs, 100 mM potassium phosphate buffer (pH 7.4), poziotinib (1, 2.5, 5, 10, 25, 50, or 100 μM) were added to obtain a final volume of 200 μL. After pre-incubation of this mixture for 5 min in a shaking water bath at 37°C, 1 mM NADPH was added to start the reaction. The reactions were allowed to proceed for 30 min, after which 200 μL of acetonitrile and 20 μL of IS were added to terminate the reactions. The mixtures were vortexed for 30 s and centrifuged again at 13,000 rpm for 5 min.

cyp3a1/2 = test: Effect of poziotinib on cyp3a1/2 activity in rats (midazolam pharmacokinetics); type: in vivo, Sprague-Dawley rats; conditions: poziotinib 5 mg/kg oral 7 days, midazolam probe
Method: Twelve male Sprague-Dawley rats (230 ± 20 g) were randomly divided into treated and control groups, with 6 in each group. […] The supernatant was mixed with 200 μL of acetonitrile and 20 μL of 0.5 μg/ml diazepam (IS), vortexed for 30 s, centrifuged at 13,000 rpm for 5 min, and the supernatant was injected into the UPLC-MS/MS system for analysis.
Pharmacokinetic parameters were calculated using DAS software (Version 3.2.8). SPSS software (version 16.0; SPSS Inc., Chicago, IL, United States) was used to analyze the significance of differences between the main pharmacokinetic parameters. p < 0.05 was considered statistically significant. GraphPad (version 8.0; GraphPad Software Inc., San Diego, CA, United States) was used to calculate IC50 and plot the plasma concentration-time curves and inhibition plots (type of inhibition, time- and concentration-dependence).

[1] = set-up: method as in He et al., 2019; Kim T. Y. et al., 2019; conditions: treatment, ref He et al., 2019, Kim T. Y. et al.; cited from earlier work
cyp2c11 [2] = biological target: T2, cyp2c11 (Rattus norvegicus, UniProt P08683); test: Cocktail method IC50 in rat liver microsomes, tolbutamide probe; type: in vitro ADME; set-up: from tissue; host or cells: rat liver microsomes, prepared in-house
T2 sequence (P08683 1-500): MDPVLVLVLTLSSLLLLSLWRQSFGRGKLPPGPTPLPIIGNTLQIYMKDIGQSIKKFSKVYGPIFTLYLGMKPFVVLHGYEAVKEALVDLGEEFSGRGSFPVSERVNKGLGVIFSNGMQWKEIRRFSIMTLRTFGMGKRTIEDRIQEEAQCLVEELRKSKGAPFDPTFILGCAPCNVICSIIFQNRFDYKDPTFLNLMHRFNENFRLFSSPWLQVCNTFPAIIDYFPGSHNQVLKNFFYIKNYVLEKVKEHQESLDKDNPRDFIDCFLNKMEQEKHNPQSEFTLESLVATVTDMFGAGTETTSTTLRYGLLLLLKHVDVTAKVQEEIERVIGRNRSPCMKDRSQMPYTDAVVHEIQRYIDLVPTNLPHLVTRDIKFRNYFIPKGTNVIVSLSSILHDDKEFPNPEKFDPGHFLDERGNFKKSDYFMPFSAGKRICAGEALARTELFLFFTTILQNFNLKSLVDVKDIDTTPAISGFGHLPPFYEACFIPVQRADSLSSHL
Method: as §1

cyp2c11 [3] = biological target: T2, cyp2c11; test: Time- and concentration-dependent inhibition in RLMs, tolbutamide; type: in vitro ADME; set-up: from tissue; host or cells: rat liver microsomes, prepared in-house
Method: A mixture containing 1 mg/ml of RLMs, different concentrations of poziotinib (0, 2, 4, 8 and16 μM for 2b1; 0, 5, 10 20 and 40 μM for 2c11), and NADPH was pre-incubated at 37°C for 0, 5, 10, and 20 min; Methanol instead of poziotinib was performed as control. Then 20 μM bupropion or 100 μM tolbutamide was added and incubated at 37°C for 30 min. The reactions were carried out and analyzed in triplicate as described in 2.3.

T1 sequence (P05182 whole entry): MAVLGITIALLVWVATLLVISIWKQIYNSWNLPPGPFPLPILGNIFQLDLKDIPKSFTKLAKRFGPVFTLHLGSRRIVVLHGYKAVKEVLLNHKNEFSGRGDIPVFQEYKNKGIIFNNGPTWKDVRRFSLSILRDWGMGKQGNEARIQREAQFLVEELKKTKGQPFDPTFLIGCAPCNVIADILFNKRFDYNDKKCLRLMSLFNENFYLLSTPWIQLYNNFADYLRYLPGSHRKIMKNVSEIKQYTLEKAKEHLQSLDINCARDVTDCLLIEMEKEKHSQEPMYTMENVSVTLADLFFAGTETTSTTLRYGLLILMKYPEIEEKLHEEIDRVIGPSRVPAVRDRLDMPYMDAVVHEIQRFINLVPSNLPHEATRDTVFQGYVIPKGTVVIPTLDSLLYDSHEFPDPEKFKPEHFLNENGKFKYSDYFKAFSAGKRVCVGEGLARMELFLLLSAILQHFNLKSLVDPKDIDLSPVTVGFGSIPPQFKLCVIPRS

C=CC(=O)N1CCC(Oc2cc3c(Nc4ccc(Cl)c(Cl)c4F)ncnc3cc2OC)CC1 [Poziotinib]
inhibitory effect on cyp2e1 (in words) (cyp2e1): did not show any obvious inhibitory effect
IC50 (cyp2e1; 40 μM chlorzoxazone, cocktail, 30 min): 156 µM
inhibitory effect on cyp2e1 (in words) (cyp2e1; listed as poziotinib): not obvious
effect on cyp3a1/2 activity in rats (cyp3a1/2): no significant inhibitory effect
common adverse reactions [1]: rash, diarrhea, and itching
inhibitory effect on cyp2c11 (in words) (cyp2c11 [2]): strong
IC50 (cyp2c11 [2]; 100 μM tolbutamide, cocktail, 30 min, read-out: IC50): 20.2 µM
IC50 (cyp2c11 [2]; classes after Jin et al., 2015, read-out: inhibition class by IC50, CYP2C11): > 10 µM
time- and concentration-dependent inhibition of cyp2c11 (cyp2c11 [3]; pre-incubation 0, 5, 10, 20 min, poziotinib 5-40 μM): no time- or concentration-dependent inhibitory effects
reversibility of inhibition of cyp2c11 (cyp2c11 [3]; pre-incubation 0, 5, 10, 20 min with NADPH): reversible

Source: PMC7970697, “Inhibition and Induction by Poziotinib of Different Rat Cytochrome P450 Enzymes In Vivo and in an In Vitro Cocktail Method” (Frontiers in Pharmacology, 2021)
